According to patent US20140213538A1, “LYSOPHOSPHATIDIC ACID RECEPTOR ANTAGONISTS” (InterMune, Inc., priority 2013, published 2014):
pEC50: −log10 of the molar value.

Molecular target: T1, LPA/S1P GPCR of interest (Homo sapiens, UniProt Q92633)
T1 construct: host or cells: CHO
Experiment: Beta-Arrestin based assay (PathHunter)
Format: cell-based
Experimental: CMV promoter based DNA constructs expressing a fusion of the LPA/S1P GPCR of interest and ProLink™ tag were used to transfect EA Parental™ CHO cells (DiscoverX, Fremont, Calif.) using a FuGENE® transfection kit (Roche). Beta-Arrestin based assays were conducted 24-48 hrs post transfection using PathHunter® assay kits (DiscoverX, Fremont, Calif.). Agonist and antagonist assays were performed in quadruplicate in white 384 well plates. End point luminescence data were plotted and fit to a 4 parameter logistic function to obtain IC50 values. For antagonist assays, an IC80 concentration of agonist (LPA) equal to 0.5 micromolar was used.

T1 sequence (Q92633 whole entry): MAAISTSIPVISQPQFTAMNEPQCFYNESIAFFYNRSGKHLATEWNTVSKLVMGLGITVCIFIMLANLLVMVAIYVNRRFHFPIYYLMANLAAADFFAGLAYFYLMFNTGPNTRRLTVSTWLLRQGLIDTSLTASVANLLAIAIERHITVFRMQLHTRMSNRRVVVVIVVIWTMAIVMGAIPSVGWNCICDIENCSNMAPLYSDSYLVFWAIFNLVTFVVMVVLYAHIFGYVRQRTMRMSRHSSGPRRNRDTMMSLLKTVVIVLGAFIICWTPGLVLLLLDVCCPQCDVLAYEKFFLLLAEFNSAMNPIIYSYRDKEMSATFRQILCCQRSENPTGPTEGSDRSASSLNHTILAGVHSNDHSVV

Row | SMILES | pEC50
1 | Cc1noc(-c2ccc(-c3ccc(OC(C)C(=O)O)cc3)cc2)c1NC(=O)O[C@H](C)c1ccccc1 (single isomer, unassigned) [IT238] | 6.30 to 7.30
2 | C[C@@H](NC(=O)Nc1c(C#Cc2cc3sc(C4(C(=O)O)CC4)cc3s2)cnn1C)c1ccccc1 [IT109] | > 7.30
3 | Cn1ncc(C#Cc2cc3sc(C4(C(=O)O)CC4)cc3s2)c1N [IT113] | < 6.30
4 | C[C@@H](OC(=O)Nc1scnc1C#Cc1cc2sc(C3(C(=O)O)CC3)cc2s1)c1ccccc1 [IT116] | < 6.30
5 | C[C@@H](OC(=O)Nc1[nH]ncc1C#Cc1cc2sc(C3(C(=O)O)CC3)cc2s1)c1ccccc1 [IT127] | < 6.30
6 | C[C@@H](OC(=O)Nc1c(-c2ccc(-c3nnc(CC(=O)O)o3)cc2)nnn1C)c1ccccc1 [IT143] | < 6.30
7 | Cc1nsc(-c2ccc(-c3ccc(C(=O)O)s3)cc2)c1NC(=O)O[C@H](C)c1ccccc1 [IT144] | < 6.30
8 | Cc1noc(-c2ccc(NC(=O)c3csc(C4(C(=O)O)CC4)n3)cc2)c1NC(=O)O[C@H](C)c1ccccc1 [IT152] | < 6.30
9 | Cc1nsc(-c2cc3sc(-c4ccc(CC(=O)O)cc4Cl)cc3s2)c1NC(=O)O[C@H](C)c1ccccc1 [IT161] | < 6.30
10 | COc1cc(CC(=O)O)ccc1-c1cc2sc(-c3snc(C)c3NC(=O)O[C@H](C)c3ccccc3)cc2s1 [IT163] | < 6.30
11 | C[C@@H](OC(=O)Nc1c(-c2ccc(-c3nnc(C4(C(=O)O)CC4)o3)cc2)nnn1C)c1ccccc1 [IT175] | < 6.30
12 | Cc1nsc(-c2ccc(-c3nnc(C4(C(=O)O)CC4)o3)cc2)c1NC(=O)O[C@H](C)c1ccccc1 [IT176] | < 6.30
13 | Cc1nsc(-c2ccc(-c3ncc(C(=O)O)s3)cc2)c1NC(=O)O[C@H](C)c1ccccc1 [IT177] | < 6.30
14 | Cc1nsc(-c2ccc(-c3nnc(C4(C(=O)O)CC4)s3)cc2)c1NC(=O)O[C@H](C)c1ccccc1 [IT200] | < 6.30
15 | Cc1nsc(-c2ccc(-c3cnc(C4(C(=O)O)CC4)s3)cc2)c1NC(=O)O[C@H](C)c1ccccc1 [IT202] | 6.30 to 7.30
16 | C[C@@H](OC(=O)Nc1c(-c2ccc(-c3ccc(C(=O)O)s3)cc2)nnn1C)c1ccccc1 [IT203] | < 6.30
17 | Cc1nsc(-c2cc3sc(-c4ccc(CC(=O)O)c(C(F)(F)F)c4)cc3s2)c1NC(=O)O[C@H](C)c1ccccc1 [IT204] | < 6.30
18 | Cc1nsc(-c2cc3sc(-c4cc(Cl)c(CC(=O)O)cc4F)cc3s2)c1NC(=O)O[C@H](C)c1ccccc1 [IT205] | < 6.30
19 | C[C@@H](OC(=O)Nc1c(-c2cc3sc(-c4ccc(-c5nnc(CC(=O)O)o5)cc4)cc3s2)cnn1C)c1ccccc1 [IT206] | < 6.30
20 | Cc1nsc(-c2cc3sc(-c4ccc(-c5nnc(CC(=O)O)o5)cc4)cc3s2)c1NC(=O)O[C@H](C)c1ccccc1 [IT207] | < 6.30
21 | C[C@@H](OC(=O)Nc1c(-c2ccc(-c3nnc(C4(C(=O)O)CC4)s3)cc2)nnn1C)c1ccccc1 [IT208] | < 6.30
22 | C[C@@H](OC(=O)Nc1c(-c2ccc(-c3ncc(C(=O)O)s3)cc2)nnn1C)c1ccccc1 [IT209] | < 6.30
23 | Cc1nsc(-c2ccc(-c3ncc(C4(C(=O)O)CC4)s3)cc2)c1NC(=O)O[C@H](C)c1ccccc1 [IT210] | < 6.30

Row | SMILES | pEC50
24 | C[C@@H](OC(=O)Nc1c(-c2cc3sc(-c4ccc(CC(=O)O)c(F)c4F)cc3s2)cnn1C)c1ccccc1 [IT211] | 6.30 to 7.30
25 | Cc1nsc(-c2cc3sc(-c4ccc(-c5nnc(CC(=O)O)s5)cc4)cc3s2)c1NC(=O)O[C@H](C)c1ccccc1 [IT213] | < 6.30
26 | C[C@@H](OC(=O)Nc1c(-c2cc3sc(-c4ccc(CC(=O)O)nc4)cc3s2)cnn1C)c1ccccc1 [IT214] | 6.30 to 7.30
27 | C[C@@H](OC(=O)Nc1c(-c2cc3sc(-c4ccc(CC(=O)O)nc4)cc3s2)nnn1C)c1ccccc1 [IT215] | 6.30 to 7.30
28 | Cc1nsc(-c2cc3sc(-c4ccc(-c5nnc(C6(C(=O)O)CC6)o5)cc4)cc3s2)c1NC(=O)O[C@H](C)c1ccccc1 [IT216] | < 6.30
29 | C[C@@H](OC(=O)Nc1c(-c2cc3sc(-c4ccc(-c5nnc(C6(C(=O)O)CC6)o5)cc4)cc3s2)cnn1C)c1ccccc1 [IT217] | < 6.30
30 | C[C@@H](OC(=O)Nc1c(-c2cc3sc(-c4ccc(-c5nnc(C6(C(=O)O)CC6)o5)cc4)cc3s2)nnn1C)c1ccccc1 [IT218] | < 6.30
31 | COc1cc(-c2cc3sc(-c4snc(C)c4NC(=O)O[C@H](C)c4ccccc4)cc3s2)ccc1CC(=O)O [IT219] | < 6.30
32 | COc1cc(-c2cc3sc(-c4nnn(C)c4NC(=O)O[C@H](C)c4ccccc4)cc3s2)ccc1CC(=O)O [IT220] | 6.30 to 7.30
33 | COc1cc(-c2cc3sc(-c4cnn(C)c4NC(=O)O[C@H](C)c4ccccc4)cc3s2)ccc1CC(=O)O [IT221] | 6.30 to 7.30
34 | C[C@@H](OC(=O)Nc1c(-c2cc3sc(-c4ccc(CC(=O)O)c(C(F)(F)F)c4)cc3s2)cnn1C)c1ccccc1 [IT222] | 6.30 to 7.30
35 | C[C@@H](OC(=O)Nc1c(-c2cc3sc(-c4ccc(CC(=O)O)c(C(F)(F)F)c4)cc3s2)nnn1C)c1ccccc1 [IT223] | 6.30 to 7.30
36 | Cc1nsc(-c2ccc3c(c2)CCCc2cc(CC(=O)O)ccc2-3)c1NC(=O)O[C@H](C)c1ccccc1 [IT225] | 6.30 to 7.30
37 | Cc1nsc(-c2ccc(-c3ccc(C4(C(=O)O)CC4)s3)cc2)c1NC(=O)O[C@H](C)c1ccccc1 [IT237] | 6.30 to 7.30
38 | C[C@@H](OC(=O)Nc1c(-c2ccc(-c3ncc(C4(C(=O)O)CC4)s3)cc2)nnn1C)c1ccccc1 [IT239] | < 6.30
39 | Cc1cc(-c2cc3sc(-c4snc(C)c4NC(=O)O[C@H](C)c4ccccc4)cc3s2)c(F)cc1CC(=O)O [IT241] | < 6.30
40 | Cc1cc(-c2cc3sc(-c4nnn(C)c4NC(=O)O[C@H](C)c4ccccc4)cc3s2)c(F)cc1CC(=O)O [IT242] | < 6.30
41 | Cc1cc(-c2cc3sc(-c4cnn(C)c4NC(=O)O[C@H](C)c4ccccc4)cc3s2)c(F)cc1CC(=O)O [IT243] | < 6.30
42 | Cc1nsc(-c2cc3sc(-c4ccc(C5(C(=O)O)CC5)cc4F)cc3s2)c1NC(=O)O[C@H](C)c1ccccc1 [IT244] | > 7.30
43 | C[C@@H](OC(=O)Nc1c(-c2cc3sc(-c4ccc(C5(C(=O)O)CC5)cc4C(F)(F)F)cc3s2)cnn1C)c1ccccc1 [IT247] | 6.30 to 7.30
44 | Cc1nsc(-c2cc3sc(-c4ccc(C5(C(=O)O)CC5)cc4C(F)(F)F)cc3s2)c1NC(=O)O[C@H](C)c1ccccc1 [IT248] | < 6.30
45 | C[C@@H](OC(=O)Nc1c(-c2cc3sc(-c4cnc(C5(C(=O)O)CC5)s4)cc3s2)cnn1C)c1ccccc1 [IT249] | 6.30 to 7.30
46 | Cc1cc(-c2cc3sc(-c4nnn(C)c4NC(=O)O[C@H](C)c4ccccc4)cc3s2)ccc1CC(=O)O [IT250] | 6.30 to 7.30

Now from value to compound:

Row | pEC50 | SMILES
47 | > 7.30 | Cc1noc(-c2ccc(-c3ccc(OC(C)C(=O)O)cc3)cc2)c1NC(=O)O[C@H](C)c1ccccc1 (single isomer, unassigned) [IT256]
48 | 6.30 to 7.30 | Cc1cc(CC(=O)O)c(F)cc1-c1cc2sc(-c3cnn(C)c3NC(=O)O[C@H](C)c3ccccc3)cc2s1 [IT251]
49 | < 6.30 | Cc1cc(CC(=O)O)c(F)cc1-c1cc2sc(-c3snc(C)c3NC(=O)O[C@H](C)c3ccccc3)cc2s1 [IT252]
50 | 6.30 to 7.30 | Cc1cc(CC(=O)O)c(F)cc1-c1cc2sc(-c3nnn(C)c3NC(=O)O[C@H](C)c3ccccc3)cc2s1 [IT253]
51 | 6.30 to 7.30 | Cc1cc(-c2cc3sc(-c4cnn(C)c4NC(=O)O[C@H](C)c4ccccc4)cc3s2)ccc1CC(=O)O [IT254]
52 | 6.30 to 7.30 | COc1cc(C2(C(=O)O)CC2)ccc1-c1cc2sc(-c3cnn(C)c3NC(=O)O[C@H](C)c3ccccc3)cc2s1 [IT264]
53 | 6.30 to 7.30 | Cc1nsc(-c2cc3sc(-c4ccc(CC(=O)O)c(F)c4F)cc3s2)c1NC(=O)O[C@H](C)c1ccccc1 [IT265]
54 | 6.30 to 7.30 | Cc1nsc(-c2cc3sc(-c4ccc(C5(C(=O)O)CC5)c(Cl)c4)cc3s2)c1NC(=O)O[C@H](C)c1ccccc1 [IT267]
55 | 6.30 to 7.30 | C[C@@H](OC(=O)Nc1c(-c2cc3sc(-c4ccc5occ(CC(=O)O)c5c4)cc3s2)nnn1C)c1ccccc1 [IT268]
56 | 6.30 to 7.30 | C[C@@H](OC(=O)Nc1c(-c2cc3sc(-c4ccc(C5(C(=O)O)CC5)nc4)cc3s2)cnn1C)c1ccccc1 [IT269]
57 | 6.30 to 7.30 | Cc1nsc(-c2cc3sc(-c4ccc(C5(C(=O)O)CC5)nc4)cc3s2)c1NC(=O)O[C@H](C)c1ccccc1 [IT271]
58 | 6.30 to 7.30 | C[C@@H](OC(=O)Nc1c(-c2cc3sc(-c4ccc(C5(C(=O)O)CC5)s4)cc3s2)cnn1C)c1ccccc1 [IT272]
59 | 6.30 to 7.30 | C[C@@H](OC(=O)Nc1c(-c2cc3sc(-c4ccc(C5(C(=O)O)CC5)s4)cc3s2)nnn1C)c1ccccc1 [IT273]
60 | 6.30 to 7.30 | Cc1nsc(-c2cc3sc(-c4ccc(C5(C(=O)O)CC5)s4)cc3s2)c1NC(=O)O[C@H](C)c1ccccc1 [IT274]
61 | 6.30 to 7.30 | COc1cc(-c2cc3sc(-c4cnn(C)c4NC(=O)O[C@H](C)c4ccccc4)cc3s2)cnc1C1(C(=O)O)CC1 [IT275]
62 | < 6.30 | Cc1nsc(-c2cc3sc(C4CCC(C(=O)O)C4)cc3s2)c1NC(=O)O[C@H](C)c1ccccc1 (some centres unmarked) [IT276]
63 | 6.30 to 7.30 | Cc1noc(-c2ccc(-c3ccc(OCC(=O)O)cc3)cc2)c1NC(=O)O[C@H](C)c1ccccc1 [IT277]
64 | 6.30 to 7.30 | C[C@@H](OC(=O)Nc1c(-c2ccc(-c3cnc(C4(C(=O)O)CC4)s3)cc2)nnn1C)c1ccccc1 [IT278]
65 | > 7.30 | Cc1noc(-c2ccc3c(c2)CCCc2cc(CC(=O)O)ccc2-3)c1NC(=O)O[C@H](C)c1ccccc1 [IT280]
66 | < 6.30 | Cc1nsc(-c2cc3sc(-c4ccc5[nH]cc(CC(=O)O)c5c4)cc3s2)c1NC(=O)O[C@H](C)c1ccccc1 [IT283]
67 | 6.30 to 7.30 | Cc1nsc(-c2cc3sc(-c4cc(Cl)c(C5(C(=O)O)CC5)cc4F)cc3s2)c1NC(=O)O[C@H](C)c1ccccc1 [IT286]
68 | < 6.30 | C[C@@H](OC(=O)Nc1c(-c2cc3sc(-c4ccc(-c5nnc(C6(C(=O)O)CC6)s5)cc4)cc3s2)cnn1C)c1ccccc1 [IT287]
